Source: ChEMBL document CHEMBL1201862, “PubChem BioAssay data set” (2004)
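In this assay, cells in 96-well plates receive the compound at five concentrations for 48 hours. Endpoints are linearly interpolated between the surrounding concentrations. Abbreviation: GI50, concentration required for 50% inhibition of growth.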 Calls of active or inactive are those of the source. Cut-off read from the data, not from the text of the source: active = GI50 up to about 1.1 µM and inactive = higher.

What was measured:
Assay in all cases: growth of human tumour cells (NCI), 48 h
KM12 = tested on: KM12
CCRF-CEM = tested on: CCRF-CEM
786-0 = tested on: 786-0
HOP-62 = tested on: HOP-62
SF-295 = tested on: SF-295
NCI-H226 = tested on: NCI-H226
K562 = tested on: K562
RPMI-8226 = tested on: RPMI-8226
HT-29 = tested on: HT-29
UO-31 = tested on: UO-31
LOX IMVI = tested on: LOX IMVI
MCF7 = tested on: MCF7
HOP-92 = tested on: HOP-92
HCT-116 = tested on: HCT-116
SR = tested on: SR
ACHN = tested on: ACHN
SK-MEL-5 = tested on: SK-MEL-5
OVCAR-8 = tested on: OVCAR-8
SK-OV-3 = tested on: SK-OV-3
CAKI-1 = tested on: CAKI-1

Measured: GI50

CCn1c(=O)c2c(=O)[nH][nH]c2c2ccccc21
inactive: KM12 > 100 µM | CCRF-CEM > 100 µM | 786-0 > 100 µM | HOP-62 > 100 µM | SF-295 > 100 µM | NCI-H226 > 100 µM | K562 > 100 µM | RPMI-8226 > 100 µM | HT-29 > 100 µM | UO-31 > 100 µM | LOX IMVI > 100 µM | MCF7 > 100 µM | HOP-92 > 100 µM | HCT-116 > 100 µM | SR > 100 µM | ACHN > 100 µM | SK-MEL-5 > 100 µM | OVCAR-8 > 100 µM

CCNC1=C(NC(=O)c2ccc(F)cc2)C(=O)c2ccccc2C1=O
inactive: KM12 49.9 µM | CCRF-CEM 35.8 µM | 786-0 > 100 µM | HOP-62 > 100 µM | SF-295 52.6 µM | NCI-H226 > 100 µM | K562 65.8 µM | RPMI-8226 > 100 µM | HT-29 22.2 µM | MCF7 30.3 µM | HOP-92 > 100 µM | HCT-116 30.3 µM | SR 48.4 µM | ACHN > 100 µM | SK-MEL-5 35 µM | OVCAR-8 32.7 µM | SK-OV-3 18.5 µM

C[C@@]1(O)C2C3CC4C5C3C1[C@](O)(C42)[C@H]5Br (some centres not stated)
inactive: KM12 > 100 µM | CCRF-CEM > 100 µM | 786-0 > 100 µM | HOP-62 > 100 µM | SF-295 > 100 µM | K562 > 100 µM | HT-29 > 100 µM | UO-31 > 100 µM | LOX IMVI > 100 µM | MCF7 > 100 µM | HOP-92 > 100 µM | HCT-116 > 100 µM | SR > 100 µM | ACHN > 100 µM | SK-MEL-5 > 100 µM | OVCAR-8 > 100 µM | CAKI-1 > 100 µM

N#C/C(=C\Nc1ccccn1)C(=O)c1ccco1
inactive: KM12 > 100 µM | 786-0 > 100 µM | HOP-62 > 100 µM | SF-295 > 100 µM | NCI-H226 > 100 µM | K562 > 100 µM | RPMI-8226 > 100 µM | HT-29 > 100 µM | UO-31 > 100 µM | LOX IMVI > 100 µM | MCF7 > 100 µM | HOP-92 > 100 µM | HCT-116 > 100 µM | SR > 100 µM | ACHN > 100 µM | SK-MEL-5 > 100 µM | OVCAR-8 > 100 µM | CAKI-1 > 100 µM | SK-OV-3 > 100 µM

COC(=O)C1=Nc2c(C)nn(-c3ccccc3)c2N=C(c2ccc(C)cc2)C1
inactive: KM12 > 10 µM | 786-0 > 10 µM | HOP-62 > 10 µM | SF-295 > 10 µM | K562 > 10 µM | RPMI-8226 > 10 µM | HT-29 > 10 µM | LOX IMVI > 10 µM | MCF7 > 10 µM | HOP-92 > 10 µM | HCT-116 > 10 µM | SR > 10 µM | ACHN > 10 µM | SK-MEL-5 > 10 µM | OVCAR-8 > 10 µM | CAKI-1 > 10 µM | SK-OV-3 > 10 µM

CC(=O)CC(=O)N1CCSC1=S
inactive: KM12 > 10 µM | CCRF-CEM > 10 µM | 786-0 > 10 µM | HOP-62 > 10 µM | SF-295 > 10 µM | NCI-H226 > 10 µM | K562 > 10 µM | RPMI-8226 > 10 µM | HT-29 > 10 µM | UO-31 > 10 µM | LOX IMVI > 10 µM | MCF7 > 10 µM | HOP-92 > 10 µM | HCT-116 > 10 µM | SR > 10 µM | ACHN > 10 µM | SK-MEL-5 > 10 µM | OVCAR-8 > 10 µM | SK-OV-3 > 10 µM

O=c1c2c3c(sc2nc(S)n1-c1ccccc1)CCCc1ccc([N+](=O)[O-])cc1-3
inactive: KM12 > 100 µM | 786-0 54 µM | HOP-62 35.1 µM | SF-295 30.4 µM | NCI-H226 > 100 µM | K562 11.7 µM | RPMI-8226 22.6 µM | HT-29 25.3 µM | UO-31 26.9 µM | LOX IMVI 19.3 µM | MCF7 36.6 µM | HOP-92 20.6 µM | HCT-116 39.1 µM | SR 27.4 µM | ACHN 81.3 µM | SK-MEL-5 25.7 µM | OVCAR-8 28.8 µM | CAKI-1 > 100 µM | SK-OV-3 > 100 µM

COC(=O)C(C(=O)C(=O)Nc1ccccc1C#N)c1nc2ccc([N+](=O)[O-])cc2nc1O (configuration not stated)
inactive: KM12 37.8 µM | CCRF-CEM 94 µM | 786-0 > 100 µM | HOP-62 > 100 µM | SF-295 > 100 µM | NCI-H226 > 100 µM | HT-29 > 100 µM | UO-31 > 100 µM | LOX IMVI > 100 µM | MCF7 > 100 µM | HOP-92 > 100 µM | HCT-116 > 100 µM | SR > 100 µM | ACHN > 100 µM | SK-MEL-5 > 100 µM | OVCAR-8 > 100 µM | CAKI-1 > 100 µM | SK-OV-3 > 100 µM

O=C1OCC2(CO1)CC1C=CC2C1 (configuration not stated)
inactive: KM12 > 100 µM | 786-0 > 100 µM | HOP-62 > 100 µM | SF-295 > 100 µM | NCI-H226 > 100 µM | K562 > 100 µM | RPMI-8226 > 100 µM | HT-29 > 100 µM | UO-31 > 100 µM | LOX IMVI > 100 µM | MCF7 > 100 µM | HOP-92 > 100 µM | HCT-116 > 100 µM | SR > 100 µM | ACHN > 100 µM | SK-MEL-5 > 100 µM | CAKI-1 > 100 µM | SK-OV-3 > 100 µM

CCOC(=O)C(NC(=O)NC(C(=O)OCC)C(=O)OCC)C(=O)OCC
inactive: 786-0 > 100 µM | HOP-62 > 100 µM | SF-295 49.9 µM | NCI-H226 > 100 µM | K562 > 100 µM | RPMI-8226 > 100 µM | HT-29 > 100 µM | UO-31 > 100 µM | MCF7 > 100 µM | HOP-92 > 100 µM | HCT-116 > 100 µM | SR > 100 µM | ACHN > 100 µM | SK-MEL-5 > 100 µM | OVCAR-8 > 100 µM | CAKI-1 > 100 µM | SK-OV-3 > 100 µM

CN(C)/C=N/[C@@H](C(=O)O)c1ccccc1
inactive: CCRF-CEM > 100 µM | 786-0 > 100 µM | HOP-62 > 100 µM | SF-295 > 100 µM | NCI-H226 > 100 µM | K562 > 100 µM | RPMI-8226 > 100 µM | HT-29 > 100 µM | UO-31 > 100 µM | LOX IMVI > 100 µM | MCF7 > 100 µM | HOP-92 > 100 µM | HCT-116 > 100 µM | SR > 100 µM | ACHN > 100 µM | SK-MEL-5 > 100 µM | OVCAR-8 > 100 µM | SK-OV-3 > 100 µM
